Measured values as given in patent publication EP1388586A2, “Identification of broadly reactive DR restricted epitopes” (priority 1998, dated 1999).
Peptide text beside a SMILES is read from it.

Biological target: T1, DRB1*0301 (DR3w17) (Homo sapiens, UniProt P01903+P01911, A100K/A102G/A103R/A169T/F55Y/I96L/K41T/L162R/M171V/P40S/Q125H/Q178H/Q39Y/R42S/S66N/T106N/T262R/W38E/Y61H)
T1 construct: used as sources of human HLA class II molecules; endogenous in cells; host or cells: MAT (EBV-transformed homozygous B cell line)
Assay: Class II peptide-binding assay, DR3 (pH 4.5);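 also: unlabeled peptide competing with a radiolabeled probe peptide for binding to affinity-purified HLA-DR3, IC50 regarded as an approximation of Kd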
Details: Table VIII; values in parentheses read as lower bounds; read-out: In IC50 Format DR3

T1 sequence (P01903 26-254, other chains not shown): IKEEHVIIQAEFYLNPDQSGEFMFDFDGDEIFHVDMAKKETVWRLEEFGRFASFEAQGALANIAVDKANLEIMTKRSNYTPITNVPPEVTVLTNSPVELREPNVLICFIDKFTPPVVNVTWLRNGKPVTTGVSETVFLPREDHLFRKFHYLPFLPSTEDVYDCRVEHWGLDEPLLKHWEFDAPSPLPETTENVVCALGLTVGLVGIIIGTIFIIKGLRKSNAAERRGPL

| Compound | IC50 |
| --- | --- |
| CSCC[C@H](NC(=O)[C@H](CCCNC(=N)N)NC(=O)[C@H](CO)NC(=O)[C@H](Cc1ccccc1)NC(=O)[C@H](CCC(=O)O)NC(=O)[C@H](CO)NC(=O)[C@@H](NC(=O)[C@H](CC(C)C)NC(=O)[C@H](CCC(=O)O)NC(=O)[C@H](CCCNC(=N)N)NC(=O)[C@@H](N)Cc1ccccc1)C(C)C)C(=O)N[C@@H](C)C(=O)N[C@@H](CCCNC(=N)N)C(=O)N[C@@H](CC(=O)O)C(=O)N1CCC[C@H]1C(=O)O [Peptide 39.0370] | 4.23 µM |

Same assay, conditions: read-out: In IC50 Format DR3 nM; Table VIII; values in parentheses read as lower bounds

| Compound | IC50 |
| --- | --- |
| CSCC[C@H](NC(=O)[C@H](CC(=O)O)NC(=O)[C@H](CC(C)C)NC(=O)[C@H](Cc1c[nH]cn1)NC(=O)[C@@H](NC(=O)[C@H](CCC(=O)O)NC(=O)[C@@H]1CCCN1C(=O)[C@H](CO)NC(=O)[C@H](C)NC(=O)[C@@H]1CCCN1C(=O)[C@H](CC(C)C)NC(=O)[C@@H](N)CCCNC(=N)N)[C@@H](C)O)C(=O)N[C@@H](CC(C)C)C(=O)N[C@@H](CCCNC(=N)N)C(=O)N[C@@H](Cc1c[nH]cn1)C(=O)O [Peptide 39.0338] | > 111 µM |
| CC(C)C[C@H](NC(=O)[C@@H]1CCCN1C(=O)CNC(=O)[C@@H](N)CCCCN)C(=O)N1CCC[C@H]1C(=O)N[C@H](C(=O)N[C@@H](CC(=O)O)C(=O)N[C@@H](CS)C(=O)N[C@@H](CS)C(=O)N[C@@H](Cc1c[nH]cn1)C(=O)N[C@@H](CCC(=O)O)C(=O)N[C@@H](CCC(N)=O)C(=O)N[C@@H](CS)C(=O)N[C@@H](C)C(=O)N[C@@H](C)C(=O)O)[C@@H](C)O [Peptide 39.0344] | > 111 µM |
| CC(C)C[C@H](NC(=O)[C@H](Cc1ccc(O)cc1)NC(=O)[C@H](CC(N)=O)NC(=O)[C@@H](N)Cc1ccc(O)cc1)C(=O)N[C@@H](CO)C(=O)N[C@H](C(=O)N[C@@H](CC(=O)O)C(=O)N[C@H](C(=O)NCC(=O)N[C@@H](CO)C(=O)N[C@@H](CS)C(=O)N[C@H](C(=O)N[C@@H](CC(C)C)C(=O)N[C@H](C(=O)N[C@@H](CS)C(=O)O)C(C)C)[C@@H](C)O)C(C)C)[C@@H](C)O [Peptide 39.0346] (H-YNYLSTDVGSCTLVC-OH) | 50.8 µM |
| CSCC[C@H](NC(=O)CNC(=O)[C@H](CC(C)C)NC(=O)CNC(=O)[C@H](Cc1ccc(O)cc1)NC(=O)[C@@H](N)CS)C(=O)N[C@@H](CCC(=O)O)C(=O)N[C@@H](Cc1c[nH]cn1)C(=O)N[C@@H](CC(C)C)C(=O)N[C@@H](CCCNC(=N)N)C(=O)N[C@@H](CCC(=O)O)C(=O)N[C@H](C(=O)N[C@@H](CCCNC(=N)N)C(=O)N[C@@H](C)C(=O)N[C@H](C(=O)O)C(C)C)C(C)C [Peptide 39.0348] | 36.1 µM |
| CC(C)C[C@H](NC(=O)[C@@H]1CCCN1C(=O)[C@H](C)NC(=O)[C@@H](NC(=O)[C@H](CC(N)=O)NC(=O)[C@H](CO)NC(=O)[C@H](C)NC(=O)[C@@H]1CCCN1C(=O)[C@H](CC(=O)O)NC(=O)CNC(=O)[C@H](CC(=O)O)NC(=O)[C@H](Cc1ccccc1)NC(=O)[C@H](CO)NC(=O)[C@H](CCC(=O)O)NC(=O)[C@@H]1CCCN1)[C@@H](C)O)C(=O)O [Peptide 39.0350] | > 111 µM |
| CC(C)C[C@H](NC(=O)[C@@H](NC(=O)[C@H](CCC(=O)O)NC(=O)[C@H](Cc1ccccc1)NC(=O)[C@@H](NC(=O)[C@H](CCC(N)=O)NC(=O)[C@H](CC(C)C)NC(=O)[C@H](CCC(N)=O)NC(=O)[C@H](CCC(=O)O)NC(=O)[C@@H]1CCCN1C(=O)[C@H](CCC(N)=O)NC(=O)[C@H](CC(C)C)NC(=O)[C@@H]1CCCN1C(=O)[C@H](C)NC(=O)[C@@H](N)[C@@H](C)O)C(C)C)[C@@H](C)O)C(=O)O [Peptide 39.0351] | 130 µM |
| CC(C)C[C@H](NC(=O)[C@H](CCC(N)=O)NC(=O)[C@H](CC(=O)O)NC(=O)[C@H](Cc1c[nH]c2ccccc12)NC(=O)[C@@H]1CCCN1C(=O)[C@@H](NC(=O)[C@@H](NC(=O)[C@H](Cc1c[nH]cn1)NC(=O)[C@@H](N)C(C)C)[C@@H](C)O)C(C)C)C(=O)N[C@@H](Cc1ccccc1)C(=O)N[C@@H](CCCNC(=N)N)C(=O)N[C@@H](CC(N)=O)C(=O)N1CCC[C@H]1C(=O)N[C@@H](Cc1c[nH]cn1)C(=O)N[C@@H](CCC(N)=O)C(=O)O [Peptide 39.0353] | 13.6 µM |
| CC(C)C[C@H](NC(=O)[C@H](CS)NC(=O)[C@H](Cc1c[nH]cn1)NC(=O)[C@H](CCCNC(=N)N)NC(=O)[C@H](C)NC(=O)[C@H](CC(N)=O)NC(=O)[C@@H](NC(=O)[C@H](Cc1ccc(O)cc1)NC(=O)[C@H](CCC(=O)O)NC(=O)[C@H](CCCNC(=N)N)NC(=O)[C@@H]1CCCN1C(=O)[C@H](CC(C)C)NC(=O)CNC(=O)[C@H](CCC(N)=O)NC(=O)[C@@H](N)CC(C)C)C(C)C)C(=O)O [Peptide 39.0355] | > 111 µM |
| CC(C)[C@H](N)C(=O)N[C@H](C(=O)N[C@@H](CS)C(=O)N[C@@H](Cc1ccccc1)C(=O)NCC(=O)N1CCC[C@H]1C(=O)N[C@@H](CCC(=O)O)C(=O)N[C@@H](C)C(=O)N[C@@H](CC(=O)O)C(=O)N[C@@H](CCC(N)=O)C(=O)N[C@@H](CS)C(=O)N[C@H](C(=O)N[C@@H](C)C(=O)N[C@@H](CS)C(=O)N[C@@H](C)C(=O)O)C(C)C)[C@@H](C)O [Peptide 39.0356] | > 111 µM |
| CC[C@H](C)[C@H](N)C(=O)N[C@@H](Cc1c[nH]c2ccccc12)C(=O)N[C@@H](CCCCN)C(=O)N[C@@H](Cc1ccccc1)C(=O)N1CCC[C@H]1C(=O)N[C@@H](CC(=O)O)C(=O)N[C@@H](CCC(=O)O)C(=O)N[C@@H](CCC(=O)O)C(=O)NCC(=O)N[C@@H](C)C(=O)N[C@@H](CS)C(=O)N[C@@H](CCC(N)=O)C(=O)N1CCC[C@H]1C(=O)N[C@@H](CS)C(=O)N1CCC[C@H]1C(=O)O [Peptide 39.0358] (H-IWKFPDEEGACQPCP-OH) | > 111 µM |
| CC(C)C[C@H](NC(=O)[C@H](CC(=O)O)NC(=O)[C@@H](NC(=O)[C@H](CS)NC(=O)[C@H](CO)NC(=O)[C@@H](N)Cc1c[nH]cn1)C(C)C)C(=O)N[C@@H](CC(=O)O)C(=O)N[C@@H](CC(=O)O)C(=O)N[C@@H](CCCCN)C(=O)NCC(=O)N[C@@H](CS)C(=O)N1CCC[C@H]1C(=O)N[C@@H](C)C(=O)N[C@@H](CCC(=O)O)C(=O)N[C@@H](CCC(N)=O)C(=O)O [Peptide 39.0359] | > 111 µM |
| CSCC[C@H](NC(=O)[C@H](CC(=O)O)NC(=O)[C@H](CC(=O)O)NC(=O)[C@H](CC(=O)O)NC(=O)[C@H](CCC(=O)O)NC(=O)[C@H](CC(C)C)NC(=O)[C@H](CC(C)C)NC(=O)[C@H](CO)NC(=O)[C@@H](N)CCCNC(=N)N)C(=O)NCC(=O)N[C@@H](CC(=O)O)C(=O)N[C@@H](CC(C)C)C(=O)N[C@H](C(=O)N[C@@H](CC(=O)O)C(=O)N[C@@H](C)C(=O)O)C(C)C [Peptide 39.0374] | 37.5 µM |
| CC(C)C[C@H](NC(=O)[C@@H]1CCCN1C(=O)[C@@H](NC(=O)[C@@H](NC(=O)[C@@H]1CCCN1C(=O)[C@H](CC(=O)O)NC(=O)[C@H](CCC(=O)O)NC(=O)[C@H](CO)NC(=O)[C@H](Cc1ccc(O)cc1)NC(=O)[C@H](CCCNC(=N)N)NC(=O)[C@H](CCC(N)=O)NC(=O)[C@@H](N)CC(C)C)[C@@H](C)O)C(C)C)C(=O)N1CCC[C@H]1C(=O)N[C@@H](CO)C(=O)N[C@@H](CCC(=O)O)C(=O)O [Peptide 39.0379] | 11.1 µM |
| C[C@H](NC(=O)CNC(=O)CNC(=O)[C@@H](N)CCC(N)=O)C(=O)N[C@@H](C)C(=O)N1CCC[C@H]1C(=O)N[C@@H](CCC(N)=O)C(=O)N1CCC[C@H]1C(=O)N[C@@H](Cc1c[nH]cn1)C(=O)N1CCC[C@H]1C(=O)N1CCC[C@H]1C(=O)N1CCC[C@H]1C(=O)N[C@@H](C)C(=O)N[C@@H](Cc1ccccc1)C(=O)N[C@@H](CO)C(=O)O [Peptide 39.0382] | > 120 µM |
| CC[C@H](C)[C@H](NC(=O)CNC(=O)[C@H](Cc1ccccc1)NC(=O)[C@@H](NC(=O)[C@H](CC(C)C)NC(=O)[C@@H](N)CCC(N)=O)C(C)C)C(=O)N[C@@H](CCC(=O)O)C(=O)N[C@H](C(=O)N[C@H](C(=O)N[C@@H](CCC(=O)O)C(=O)N[C@H](C(=O)N[C@H](C(=O)N1CCC[C@H]1C(=O)N[C@H](C(=O)N[C@@H](CO)C(=O)O)[C@@H](C)CC)C(C)C)C(C)C)C(C)C)C(C)C [Peptide 39.0389] | 41.7 µM |

Same assay, conditions: read-out: In IC50 Format DR3; Table VIII

| Compound | IC50 |
| --- | --- |
| CC[C@H](C)[C@H](NC(=O)[C@H](C)NC(=O)[C@@H](N)CC(C)C)C(=O)N[C@H](C(=O)N[C@@H](C)C(=O)N[C@@H](CCCNC(=N)N)C(=O)N[C@@H](CCC(=O)O)C(=O)NCC(=O)N[C@@H](CC(=O)O)C(=O)N[C@@H](CS)C(=O)N[C@@H](C)C(=O)N1CCC[C@H]1C(=O)N[C@@H](CCC(=O)O)C(=O)N[C@@H](CCC(=O)O)C(=O)N[C@@H](CCCCN)C(=O)O)[C@@H](C)CC [Peptide 39.0405] | > 120 µM |
| CC(C)C[C@H](NC(=O)[C@H](CCCCN)NC(=O)[C@H](Cc1c[nH]c2ccccc12)NC(=O)[C@H](CC(C)C)NC(=O)[C@H](CC(=O)O)NC(=O)[C@H](CO)NC(=O)[C@H](Cc1ccccc1)NC(=O)[C@@H](NC(=O)[C@H](CCC(=O)O)NC(=O)[C@H](CCC(N)=O)NC(=O)[C@H](CO)NC(=O)[C@H](CC(C)C)NC(=O)[C@@H]1CCCN1C(=O)[C@@H]1CCCN1C(=O)[C@@H](N)CCC(=O)O)[C@@H](C)O)C(=O)O [Peptide 39.0409] | > 120 µM |
| CC[C@H](C)[C@H](NC(=O)[C@H](CC(=O)O)NC(=O)[C@H](CC(=O)O)NC(=O)[C@@H]1CCCN1C(=O)[C@H](CO)NC(=O)[C@H](CC(C)C)NC(=O)[C@H](CCSC)NC(=O)[C@H](CC(C)C)NC(=O)[C@@H](N)CC(=O)O)C(=O)N[C@@H](CCC(=O)O)C(=O)N[C@@H](CCC(N)=O)C(=O)N[C@@H](Cc1c[nH]c2ccccc12)C(=O)N[C@@H](Cc1ccccc1)C(=O)N[C@H](C(=O)N[C@@H](CCC(=O)O)C(=O)O)[C@@H](C)O [Peptide 39.0411] | 20 µM |
| C[C@H](NC(=O)[C@H](CCC(=O)O)NC(=O)[C@H](CC(=O)O)NC(=O)[C@@H]1CCCN1C(=O)CNC(=O)[C@@H]1CCCN1C(=O)[C@H](CC(=O)O)NC(=O)[C@H](CCC(=O)O)NC(=O)[C@@H](NC(=O)[C@H](Cc1ccccc1)NC(=O)[C@H](Cc1c[nH]c2ccccc12)NC(=O)[C@H](CCC(N)=O)NC(=O)[C@@H](N)CCC(=O)O)[C@@H](C)O)C(=O)N1CCC[C@H]1C(=O)N[C@@H](CCCNC(=N)N)C(=O)O [Peptide 39.0412] | > 120 µM |
